Results on 14 compounds are retold here after ChEMBL document CHEMBL4130585, “Pimentelamines A-C, Indole Alkaloids Isolated from the Leaves of the Australian Tree Flindersia pimenteliana” (J Nat Prod, 2017).

pIC50: −log10 of the molar value. Active and inactive are the calls of the source. The rule behind the calls is not given here.

The subject of data set [1] is Plasmodium falciparum. The data set is described as follows: Growth inhibition of chloroquine-resistant Plasmodium falciparum Dd2 at 40 uM after 72 hrs by DAPI staining based confocal microplate imaging method relative to control. It counts as functional.
Data set [2] relates to HEK293. The data set is described as follows: Cytotoxicity against HEK293 cells at 40 uM after 72 hrs by resazurin dye based assay. It counts as cell-based. Particulars: human, hek293, 72 h. In general terms: Alamar Blue is a resazurin reagent that responds to reducing activity.
The test system of data set [3] is Plasmodium falciparum. The data set is described as follows: Antimalarial activity against chloroquine-sensitive Plasmodium falciparum 3D7 at 40 uM after 72 hrs by DAPI staining based confocal microplate imaging method. It is filed as functional, organism-based.
Data set [4] concerns Plasmodium falciparum. As to the kind of experiment: Antimalarial activity against chloroquine-resistant Plasmodium falciparum Dd2 after 72 hrs by DAPI staining based confocal microplate imaging method. It is filed as functional, organism-based. Particulars: Dd2, 72 h.
Data set [5] is described as follows: Selectivity index, ratio of IC50 for HEK293 cells to IC50 for chloroquine-sensitive Plasmodium falciparum 3D7. It counts as toxicity. Particulars: human, read-out: Ratio IC50.
For data set [6], the system named is HEK293. As to the kind of experiment: Cytotoxicity against HEK293 cells after 72 hrs by resazurin dye based assay. It counts as cell-based. Particulars: Homo sapiens, HEK293, 72 h.
In data set [7] the test system is Plasmodium falciparum. As to the kind of experiment: Antimalarial activity against chloroquine-sensitive Plasmodium falciparum 3D7 at 5 uM after 72 hrs by DAPI staining based confocal microplate imaging method relative to control. It is filed as functional.
Data set [8] deals with Plasmodium falciparum. As to the kind of experiment: Antimalarial activity against chloroquine-sensitive Plasmodium falciparum 3D7 after 72 hrs by DAPI staining based confocal microplate imaging method. It counts as functional, organism-based. The following applies: 3D7, 72 h.

Take `CN(C)CCc1c(C[C@@H]2O[C@]34OC[C@H](O)[C@H]3OC(=O)[C@]4(O)C2(C)C)[nH]c2ccccc12.O=C(O)C(F)(F)F`: the “growth inhibition (GI)” value in the data set with Plasmodium falciparum [1] is “inactive”. Moreover, the Activity result in the data set with HEK293 [2] is reported as “Non-Toxic”. Besides, the outcome in the data set on Plasmodium falciparum [3] was inactive.

With `CNCCc1c(C[C@@H]2O[C@]34OC[C@H](O)[C@H]3OC(=O)[C@]4(O)C2(C)C)[nH]c2ccccc12.O=C(O)C(F)(F)F`, the “growth inhibition (GI)” value in the data set on Plasmodium falciparum [1] is “inactive”. Moreover, the Activity entry in the data set on HEK293 [2] is reported as “Non-Toxic”. Also, in the data set with Plasmodium falciparum [3], the result was inactive.

As usually defined, the pIC50 is the negative decadic logarithm of the IC50, by convention in mol/L. A lower pIC50 goes with a high IC50. Consider `COc1ccc(C[C@H](N)C(=O)N[C@H]2[C@@H](O)[C@H](n3cnc4c(N(C)C)ncnc43)O[C@@H]2CO)cc1` [PUROMYCIN], for which the results for the pIC50 in the data set on Plasmodium falciparum [4] and in the data set with HEK293 [6] were 7.49 and 6.16 to 6.35, respectively. For the same compound, the selectivity ratio in data set [5] came to 8. Also, the Activity in the data set on Plasmodium falciparum [7] was determined as 100%.

As to `CNCCc1c([C@@H]2[C@@H]3[C@H](C=C(C)CC3(C)C)[C@]34Nc5ccccc5[C@]23CCN4C)[nH]c2ccccc12`, the pIC50 was 6.66 with Plasmodium falciparum [4], 6.51 in the data set with Plasmodium falciparum [8] and 5.30 with HEK293 [6]. Further, the selectivity ratio in data set [5] was determined as 16.

As for `CC1=C[C@@H]2c3c(CCN(C)C)c4ccccc4n3[C@@H](c3[nH]c4ccccc4c3CCN(C)C)[C@@H]2C(C)(C)C1`, the pIC50 is 6.72 in the data set on Plasmodium falciparum [4], 6.17 with Plasmodium falciparum [8] and 5.27 in the data set on HEK293 [6]. Also, the selectivity ratio in data set [5] turned out to be 8.

In turn, `CCN(CC)CCCC(C)Nc1ccnc2cc(Cl)ccc12` (stereo not drawn) [CHLOROQUINE] showed a pIC50 in the data set with HEK293 [6] of 6.31.

With `C[C@H]1[C@H](OC(=O)CCC(=O)O)O[C@@H]2O[C@@]3(C)CC[C@H]4[C@H](C)CC[C@@H]1[C@@]24OO3` [ARTESUNATE], the pIC50 in the data set with Plasmodium falciparum [8] was 9.00; with HEK293 [6], 5.15. Also, the selectivity ratio in data set [5] came to 7990.

As for `CC1=C[C@H]2[C@@H]([C@@H](c3[nH]c4ccccc4c3CCN(C)C)[C@]34CCN(C)[C@]23Nc2ccccc24)C(C)(C)C1`, the pIC50 with Plasmodium falciparum [4] was 6.47; in the data set on Plasmodium falciparum [8] it was 6.29; in the data set with HEK293 [6], 5.15. The selectivity ratio in data set [5] stood at 14.

As to `CC1(C)[C@H](Cc2[nH]c3ccccc3c2CC[N+](C)(C)O)O[C@]23OC[C@H](O)[C@H]2OC(=O)[C@]13O.O=C([O-])C(F)(F)F`, the Activity entry in the data set with HEK293 [2] was “Non-Toxic”. The pIC50 in the data set with Plasmodium falciparum [4] was 5.57; in the data set with Plasmodium falciparum [8] it was 5.44. In data set [5], the selectivity ratio was above 6.

Take `COc1ccc2nc3cc(Cl)ccc3c(Nc3cc(CN4CCCC4)c(O)c(CN4CCCC4)c3)c2n1` [PYRONARIDINE]: the pIC50 with Plasmodium falciparum [4] was 6.85; with HEK293 [6] it was 5.54. Further, the selectivity ratio in data set [5] stood at 239.

Consider `C[C@H]1[C@@H](O)O[C@@H]2O[C@@]3(C)CC[C@H]4[C@H](C)CC[C@@H]1[C@@]24OO3` [ARTENIMOL], for which the pIC50 with Plasmodium falciparum [4] is 9.40; with Plasmodium falciparum [8] it was 9.52; in the data set with HEK293 [6], 5.00. Further, in data set [5], the selectivity ratio is 38100.

On to `C[C@@H]1O[C@@H](Oc2c(-c3ccc(O)c(O)c3)oc3cc(O)cc(O)c3c2=O)[C@H](O)[C@H](O)[C@H]1O` [QUERCITRIN], for which, in the data set with Plasmodium falciparum [1], the “growth inhibition (GI)” value was “inactive”. For the same compound, the Activity result with HEK293 [2] is given as “Non-Toxic”. For the same compound, the outcome in the data set on Plasmodium falciparum [3] was inactive.

For the compound `CC1(C)C=Cc2c(cc3oc(-c4ccc(O)cc4)cc(=O)c3c2O)O1`, the Activity entry in the data set with HEK293 [2] was “Non-Toxic”. For the same compound, the pIC50 is 5.64 in the data set on Plasmodium falciparum [4] and 5.47 in the data set on Plasmodium falciparum [8]. Moreover, the selectivity ratio in data set [5] is above 6.

As for `CCc1nc(N)nc(N)c1-c1ccc(Cl)cc1` [PYRIMETHAMINE], the inhibition of growth at 40 µM in the data set on Plasmodium falciparum [1] (Dd2, 72 h, read-out: GI) came out at 59%. The pIC50 was 8.22 in the data set on Plasmodium falciparum [8] and 6.16 in the data set with HEK293 [6]. Also, in data set [5], the selectivity ratio was determined as 120.
